The subject of this experiment is BDF1 mice, P388 leukemia ip, median survival T/C. Kind of experiment: NCI In Vivo Anticancer Drug Screen. Data for tumor model P388 Leukemia (intraperitoneal) in B6D2F1 (BDF1) mice. The following applies: endpoint: median survival time, higher = longer survival. An outline of the steps: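 Compound-treated tumour-bearing mice were compared with vehicle-treated controls. Survival was recorded, and the value is the treated-group measurement divided by the control-group measurement (T/C).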

The mark [1] stands for this setting: dose: 50.0 mg/kg/injection, schedule: Q01DX009 (ip), vehicle: saline with Tween-80.
Setting [2] is: dose: 100.0 mg/kg/injection, schedule: Q01DX009 (ip), vehicle: saline with Tween-80.
Setting [3] is: dose: 200.0 mg/kg/injection, schedule: Q01DX009 (ip), vehicle: saline with Tween-80.

Where “and” joins values, the source holds several entries; their conditions need not be identical. Equal values may be shown once. Inconclusive results and toxic doses are left out.

For the compound `Cc1c2oc3c(C)ccc(C(=O)NC4C(=O)NC(C(C)C)C(=O)N5CCCC5C(=O)N(C)CC(=O)N(C)C(C(C)C)C(=O)OC4C)c3nc-2c(C(=O)NC2C(=O)NC(C(C)C)C(=O)N3CCCC3C(=O)N(C)CC(=O)N(C)C(C(C)C)C(=O)OC2C)cc1=O` (configuration not stated), the T/C (dose: 0.24 mg/kg/injection, schedule: Q01DX009 (ip), vehicle: saline + alcohol) is 97 % of control; the T/C (dose: 0.34 mg/kg/injection, schedule: Q01DX009 (ip), vehicle: saline + alcohol) was 101 % of control; the T/C (dose: 0.49 mg/kg/injection, schedule: Q01DX009 (ip), vehicle: saline + alcohol) is 100 % of control; the T/C (dose: 0.7 mg/kg/injection, schedule: Q01DX009 (ip), vehicle: saline + alcohol) was 112 % of control; the T/C (dose: 1.0 mg/kg/injection, schedule: Q01DX009 (ip), vehicle: saline + alcohol) was 106 % of control; the T/C (dose: 1.17 mg/kg/injection, schedule: Q04DX003 (ip), vehicle: saline + alcohol) was 107 % of control and 124 % of control. In addition, the T/C is, setting by setting: (dose: 1.7 mg/kg/injection, schedule: Q04DX003 (ip), vehicle: saline + alcohol) 104 % of control; (dose: 1.94 mg/kg/injection, schedule: Q04DX003 (ip), vehicle: saline + alcohol) 107 % of control; (dose: 2.4 mg/kg/injection, schedule: Q01DX001 (ip), vehicle: saline + alcohol) 112 % of control; (dose: 3.4 mg/kg/injection, schedule: Q01DX001 (ip), vehicle: saline + alcohol) 113 % of control; (dose: 4.9 mg/kg/injection, schedule: Q04DX003 (ip), vehicle: saline + alcohol) 150 % of control; (dose: 5.4 mg/kg/injection, schedule: Q04DX003 (ip), vehicle: saline + alcohol) 168 % of control. Moreover, the T/C was 169 % of control (dose: 7.0 mg/kg/injection, schedule: Q04DX003 (ip), vehicle: saline + alcohol); 159 % of control and 176 % of control (dose: 9.0 mg/kg/injection, schedule: Q04DX003 (ip), vehicle: saline + alcohol); 153 % of control (dose: 10.0 mg/kg/injection, schedule: Q01DX001 (ip), vehicle: saline + alcohol); 183 % of control and 193 % of control (dose: 15.0 mg/kg/injection, schedule: Q04DX003 (ip), vehicle: saline + alcohol).
In the case of `FC(F)(F)c1nc2nc(Cl)c(Cl)nc2[nH]1`, the T/C is 100 % of control (dose: 10.0 mg/kg/injection, schedule: Q01DX009 (ip), vehicle: other); 109 % of control (dose: 20.0 mg/kg/injection, schedule: Q01DX009 (ip), vehicle: other); 120 % of control (dose: 26.6 mg/kg/injection, schedule: Q01DX009 (ip), vehicle: other); 118 % of control (dose: 44.0 mg/kg/injection, schedule: Q04DX003 (ip), vehicle: other); 150 % of control (dose: 100.0 mg/kg/injection, schedule: Q04DX003 (ip), vehicle: other).
In the case of `O=C(c1ccccc1)C1C(c2ccccc2)C2(CCCCC2=O)C(c2ccccc2)CC1(O)c1ccccc1` (configuration not stated), the T/C (dose: 25.0 mg/kg/injection, schedule: Q01DX001 (ip), vehicle: Klucel (hydroxypropylcellulose) (HPC)) was 88 % of control.
For `O=Cc1c2c(c(C=O)c3c1OCO3)OCO2`, the T/C was 97 % of control (dose: 100.0 mg/kg/injection, schedule: Q01DX001 (ip), vehicle: saline with Tween-80); 97 % of control (dose: 200.0 mg/kg/injection, schedule: Q01DX001 (ip), vehicle: saline with Tween-80); 90 % of control (dose: 400.0 mg/kg/injection, schedule: Q01DX001 (ip), vehicle: saline with Tween-80).
For the compound `COc1cc2c3c4c1OCc1c5c(cc(c1-4)CC3[N+](C)(C)CC2)OCO5` (configuration not stated), the T/C is 105 % of control (dose: 6.25 mg/kg/injection, schedule: Q01DX001 (ip), vehicle: saline) and 99 % of control (dose: 12.5 mg/kg/injection, schedule: Q01DX001 (ip), vehicle: saline).
Regarding `O=C1CN(CN2CCCCC2)C(=O)CN1CN1CCCCC1`, the T/C runs as follows: (dose: 12.5 mg/kg/injection, schedule: Q01DX009 (ip), vehicle: Klucel (hydroxypropylcellulose) (HPC)) 115 % of control; (dose: 25.0 mg/kg/injection, schedule: Q01DX009 (ip), vehicle: Klucel (hydroxypropylcellulose) (HPC)) 117 % of control; (dose: 50.0 mg/kg/injection, schedule: Q01DX009 (ip), vehicle: Klucel (hydroxypropylcellulose) (HPC)) 92 % of control and 100 % of control; (dose: 100.0 mg/kg/injection, schedule: Q04DX003 (ip), vehicle: Klucel (hydroxypropylcellulose) (HPC)) 120 % of control; (dose: 200.0 mg/kg/injection, schedule: Q04DX003 (ip), vehicle: Klucel (hydroxypropylcellulose) (HPC)) 108 % of control.
As for `C1=CN(c2ccc(/C=C\c3ccnc4ccccc34)cc2)C=CN1c1ccc(/C=C\c2ccnc3ccccc23)cc1`, the T/C under setting [1] is 119 % of control.
On to `COc1cc(NC(=O)CC(C)=O)cc2c(C)cc(=O)[nH]c12`, for which the T/C was 91 % of control (dose: 75.0 mg/kg/injection, schedule: Q04DX003 (ip), vehicle: Klucel (hydroxypropylcellulose) (HPC)); 100 % of control (dose: 150.0 mg/kg/injection, schedule: Q04DX003 (ip), vehicle: Klucel (hydroxypropylcellulose) (HPC)); 104 % of control (dose: 300.0 mg/kg/injection, schedule: Q04DX003 (ip), vehicle: Klucel (hydroxypropylcellulose) (HPC)).
`Cc1ccc2nc(C)n(C)c(=O)c2c1`: the T/C runs as follows: under setting [1], 98 % of control; under setting [2], 91 % of control; under setting [3], 92 % of control.
Turning to `COc1ccc2cc3[n+](cc2c1OC)CCc1cc2c(cc1-3)OCO2`, the T/C reads like this: (dose: 1.0 mg/kg/injection, schedule: Q01DX010 (ip), vehicle: steriod suspending solution) 104 % of control; (dose: 2.0 mg/kg/injection, schedule: Q01DX010 (ip), vehicle: steriod suspending solution) 122 % of control; (dose: 6.0 mg/kg/injection, schedule: Q01DX010 (ip), vehicle: saline) 104 % of control.
Regarding `COC(=O)[C@@]12OC[C@]34[C@H]([C@@H](O)[C@@H]1O)[C@@]1(C)[C@H](O)C(=O)C=C(C)[C@@H]1C[C@H]3OC(=O)C(OC(C)=O)[C@@H]24` (some centres not stated), the T/C (dose: 15.0 micrograms/kg/injection, schedule: Q01DX009 (ip), vehicle: saline + alcohol) was 100 % of control; the T/C (dose: 16.0 micrograms/kg/injection, schedule: Q01DX009 (ip), vehicle: saline + alcohol) is 100 % of control; the T/C (dose: 31.0 micrograms/kg/injection, schedule: Q01DX009 (ip), vehicle: saline + alcohol) is 90 % of control and 100 % of control; the T/C (dose: 62.0 micrograms/kg/injection, schedule: Q01DX009 (ip), vehicle: saline + alcohol) was 90 % of control and 104 % of control; the T/C (dose: 125.0 micrograms/kg/injection, schedule: Q01DX009 (ip), vehicle: saline + alcohol) is 115 % of control; the T/C (dose: 250.0 micrograms/kg/injection, schedule: Q01DX009 (ip), vehicle: saline + alcohol) was 110 % of control. The T/C (dose: 500.0 micrograms/kg/injection, schedule: Q01DX009 (ip), vehicle: saline + alcohol) is 120 % of control.
For the compound `COc1ccc(-c2nnc(C)nc2-c2ccc(OC)cc2)cc1`, the T/C is 96 % of control (dose: 50.0 mg/kg/injection, schedule: Q01DX005 (ip), vehicle: saline with Tween-80); 106 % of control (dose: 100.0 mg/kg/injection, schedule: Q01DX005 (ip), vehicle: saline with Tween-80); 100 % of control (dose: 200.0 mg/kg/injection, schedule: Q01DX005 (ip), vehicle: saline with Tween-80).
As to `COc1cccc2c1C(=O)c1c(O)c3c(c(O)c1C2=O)CC(O)(C(=O)CO)CC3OC1CC(N)C(O)C(C)O1` (configuration not stated) (tested in a mixture with another compound), the T/C reads like this: (dose: 1.56 mg/kg/injection, schedule: Q01DX009 (ip), vehicle: other) 118 % of control; (dose: 3.13 mg/kg/injection, schedule: Q01DX009 (ip), vehicle: other) 106 % of control; (dose: 6.25 mg/kg/injection, schedule: Q01DX009 (ip), vehicle: other) 93 % of control; (dose: 12.5 mg/kg/injection, schedule: Q01DX009 (ip), vehicle: other) 108 % of control.
Consider `O=C(O)C1CCC(=O)N1C(=O)OCc1ccccc1` (configuration not stated), for which the T/C under setting [2] was 90 % of control; the T/C under setting [3] is 90 % of control; the T/C (dose: 400.0 mg/kg/injection, schedule: Q01DX009 (ip), vehicle: saline with Tween-80) is 95 % of control.
Take `Cc1ccc(-c2nc3cc(Cl)ccc3c(=O)o2)cc1`: the T/C reads like this: under setting [1], 110 % of control; (dose: 75.0 mg/kg/injection, schedule: Q01DX009 (ip), vehicle: saline with Tween-80) 104 % of control; under setting [2], 100 % of control; (dose: 100.0 mg/kg/injection, schedule: Q04DX003 (ip), vehicle: saline with Tween-80) 109 % of control; (dose: 150.0 mg/kg/injection, schedule: Q01DX009 (ip), vehicle: saline with Tween-80) 109 % of control; under setting [3], 120 % of control. Besides, the T/C runs as follows: (dose: 200.0 mg/kg/injection, schedule: Q04DX003 (ip), vehicle: saline with Tween-80) 109 % of control; (dose: 300.0 mg/kg/injection, schedule: Q01DX009 (ip), vehicle: saline with Tween-80) 95 % of control.

These data come from PubChem BioAssay AID328 (DTP/NCI, 2004).
